Calls of active or inactive are those of the source. No cut-off for these calls is given here.

The test system of assay [1] is Escherichia coli. As to the kind of experiment: Antibacterial activity against Escherichia coli IH3080 assessed as reduction in bacterial count at 2 ug/ml using fresh compound stock solution. The class given is functional, organism-based.
The test system of assay [2] is Escherichia coli. As to the kind of experiment: Antibacterial activity against Escherichia coli IH3080 assessed as reduction in bacterial count at 2 ug/ml using 2 day old compound stock solution. The class given is functional. Set-up: scale not given: the % may be the effect or the level left.

Take `CCCCCCCC(=O)N[C@H](C(=O)N[C@H](CO)C(=O)N[C@H]1CCNC(=O)[C@H]([C@@H](C)O)NC(=O)[C@H](CCN)NC(=O)[C@H](CCN)NC(=O)[C@H](CC(C)C)NC(=O)[C@H](Cc2ccccc2)NC(=O)[C@H](CCN)NC1=O)[C@@H](C)O`: in assay [1], the result was Active. As for `CCCCCCCC(=O)N[C@H](C(=O)N[C@H](CO)C(=O)N[C@H]1CCNC(=O)[C@H]([C@@H](C)O)NC(=O)[C@H](CCN)NC(=O)[C@H](CCN)NC(=O)[C@H](CC(C)C)NC(=O)[C@@H](Cc2ccccc2)NC(=O)[C@H](CCN)NC1=O)[C@@H](C)O.CS(=O)(=O)[O-].[Na+]`, the Activity in assay [2] is on record as 90%.

The record behind these values is ChEMBL document CHEMBL1671867, “Novel polymyxin derivatives carrying only three positive charges are effective antibacterial agents” (Antimicrob Agents Chemother, 2008).
